Reference: patent US9062041B2 (Bayer Intellectual Property GmbH, priority 2011, dated 2015)
pIC50: −log10 of the molar value.

How the values were obtained:
Format in all cases: cell-based
human PGD receptor = molecular target: T1, human PGD receptor (Homo sapiens, UniProt Q13258); test: cAMP antagonism test on the human prostaglandin D receptor (HTRF cAMP detection); conditions: selectivity towards hDP, IC50 measured by cAMP antagonism test
T1 sequence (Q13258 1-359): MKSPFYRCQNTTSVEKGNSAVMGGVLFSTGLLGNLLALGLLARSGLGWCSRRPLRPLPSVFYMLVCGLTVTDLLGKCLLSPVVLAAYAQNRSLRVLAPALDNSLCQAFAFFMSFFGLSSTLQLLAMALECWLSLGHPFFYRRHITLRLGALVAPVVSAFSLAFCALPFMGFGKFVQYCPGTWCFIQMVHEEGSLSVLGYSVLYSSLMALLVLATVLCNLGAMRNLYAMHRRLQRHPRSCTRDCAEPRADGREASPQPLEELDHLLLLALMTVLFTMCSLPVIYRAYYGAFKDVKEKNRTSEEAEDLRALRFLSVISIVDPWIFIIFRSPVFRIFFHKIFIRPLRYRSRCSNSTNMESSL
In short: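 Cells pre-mixed with cAMP-d2 were preincubated with compound (0.8 nM–16.5 μM) for 20 min at RT, then stimulated with 3× PGD2 solution (6 nM, in PBS-IBMX) for 30 min at RT. After lysis (20 min), HTRF read at 665/620 nm; antagonism seen as rise in FRET ratio.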

[1] = molecular target: EP2 subtype of the human PGE2 receptor (Homo sapiens, UniProt P43116); test: cAMP antagonism test on the human EP2 receptor (HTRF cAMP detection); conditions: hEP2 receptor, read-out: Antagonism hEP2 IC50
EP2 subtype of the human PGE2 receptor, sequence (P43116 whole entry): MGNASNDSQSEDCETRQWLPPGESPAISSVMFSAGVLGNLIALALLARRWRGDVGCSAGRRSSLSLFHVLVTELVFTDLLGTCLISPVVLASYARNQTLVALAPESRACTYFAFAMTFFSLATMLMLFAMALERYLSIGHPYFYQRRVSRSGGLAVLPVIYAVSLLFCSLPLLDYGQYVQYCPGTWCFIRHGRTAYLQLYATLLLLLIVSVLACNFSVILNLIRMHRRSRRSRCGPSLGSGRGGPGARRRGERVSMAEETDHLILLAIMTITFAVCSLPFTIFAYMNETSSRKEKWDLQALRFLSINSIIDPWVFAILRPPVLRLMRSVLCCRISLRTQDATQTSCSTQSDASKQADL
In short: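 Cells expressing human EP2 preincubated 20 min at RT with compound (0.8 nM–16.5 μM), then stimulated 60 min with PGE2 (3× solution 1.5 nM) in PBS-IBMX. After 20 min lysis, cAMP measured by competitive HTRF with cAMP-d2 and Eu cryptate anti-cAMP antibody (665/620 nm ratio).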

[2] = molecular target: EP4 subtype of the human PGE2 receptor (Homo sapiens, UniProt P35408); test: cAMP antagonism test on the human EP4 receptor (HTRF cAMP detection); conditions: selectivity towards hEP4, IC50 measured by cAMP antagonism test
EP4 subtype of the human PGE2 receptor, sequence (P35408 whole entry): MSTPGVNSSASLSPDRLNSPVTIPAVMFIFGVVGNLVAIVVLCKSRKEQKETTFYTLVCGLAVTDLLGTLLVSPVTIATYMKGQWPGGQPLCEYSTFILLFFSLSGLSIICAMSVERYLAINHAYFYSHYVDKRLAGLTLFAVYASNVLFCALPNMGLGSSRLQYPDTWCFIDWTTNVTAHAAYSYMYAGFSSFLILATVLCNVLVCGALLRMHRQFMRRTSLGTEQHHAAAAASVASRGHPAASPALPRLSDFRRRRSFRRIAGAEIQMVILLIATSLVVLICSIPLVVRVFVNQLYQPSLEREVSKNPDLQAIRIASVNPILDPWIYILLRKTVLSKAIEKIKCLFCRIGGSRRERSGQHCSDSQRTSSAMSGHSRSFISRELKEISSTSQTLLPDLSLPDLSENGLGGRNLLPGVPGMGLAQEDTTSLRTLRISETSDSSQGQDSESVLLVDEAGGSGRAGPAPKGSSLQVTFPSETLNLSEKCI
In short: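 Cells expressing human EP4 preincubated 20 min at RT with compound (0.8 nM–16.5 μM), then stimulated with PGE2 (0.3 nM in 3× solution, with IBMX) 60 min at RT. After lysis, cAMP measured by HTRF competition (665/620 nm ratio); antagonism seen as rise in FRET signal.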

Q: With `Cc1c(C(=O)NCC(F)(F)F)ccc2nn(CC3CCN(C(=O)c4nc5ccccc5o4)CC3)cc12` [Example 299, 2-{[1-(benzoxazol-2-ylcarbonyl)piperidin-4-yl]methyl}-4-methyl-N-(2,2,2-trifluoroethyl)-2H-indazol-5-carboxamide] as the compound, how does the “Selectivity hEP2/hDP” value (human PGD receptor) read?
A: xx (xx: 10-100)

Q: And the pIC50 [1]?
A: 6.27

Q: What about the “Selectivity hEP2/hEP4” value [2] of the same compound?
A: xx (xx: 10-100)

Q: Which results are given for `COCCNC(=O)c1ccc2nn(CC3CCN(C(=O)c4nc5ccccc5n4C)CC3)cc2c1C` [Example 338, N-(2-methoxyethyl)-4-methyl-2-({1-[(1-methyl-1H-benzimidazol-2-yl)carbonyl]-piperidin-4-yl}methyl)-2H-indazol-5-carboxamide]?
A: Selectivity hEP2/hDP (human PGD receptor): xxx (xxx > 100); pIC50 [1]: 7.55; Selectivity hEP2/hEP4 [2]: xxx (xxx > 100)

Q: For `COCCNC(=O)c1ccc2nn(CC3CCN(C(=O)c4ccc(-c5ccc(F)cc5)cc4)CC3)cc2c1OCC(F)(F)F` [Example 234, 2-({1-[(4′-fluorobiphenyl-4-yl)carbonyl]piperidin-4-yl}methyl)-N-(2-methoxy-ethyl)-4-(2,2,2-trifluoroethoxy)-2H-indazol-5-carboxamide], which “Selectivity hEP2/hDP” value (human PGD receptor) is on record?
A: xxx (xxx > 100)

Q: What about the pIC50 [1] of the same compound?
A: 7.32

Q: What about the “Selectivity hEP2/hEP4” value [2] of the same compound?
A: xxx (xxx > 100)

Q: For `COCCNC(=O)c1ccc2nn(CC3CCN(C(=O)c4ccc5ccc(OC)cc5c4)CC3)cc2c1C` [Example 344, N-(2-methoxyethyl)-2-{[1-(7-methoxy-2-naphthoyl)piperidin-4-yl]methyl}-4-methyl-2H-indazol-5-carboxamide], which “Selectivity hEP2/hDP” value (human PGD receptor) is on record?
A: xxx (xxx > 100)

Q: What about the pIC50 [1] of the same compound?
A: 7.99

Q: And the “Selectivity hEP2/hEP4” value [2]?
A: xxx (xxx > 100)

Q: Which results are given for `Cc1c(C(=O)NCC2COCCO2)ccc2nn(CC3CCN(C(=O)c4ccc(-c5ccc(F)cc5)cc4)CC3)cc12` (racemic) [Example 411, (+/−)-N-(1,4-dioxan-2-ylmethyl)-2-({1-[(4′-fluorobiphenyl-4-yl)carbonyl]-piperidin-4-yl}methyl)-4-methyl-2H-indazol-5-carboxamide]?
A: Selectivity hEP2/hDP (human PGD receptor): xxx (xxx > 100); pIC50 [1]: 7.78; Selectivity hEP2/hEP4 [2]: xxx (xxx > 100)

Q: Which results are given for `COCCNC(=O)c1ccc2nn(CC3CCN(C(=O)c4ccc(N5CCOCC5)cc4F)CC3)cc2c1C` [Example 53, 2-{[1-(2-fluoro-4-morpholinobenzoyl)-piperidin-4-yl]-methyl}-N-(2-methoxyethyl)-4-methyl-2H-indazol-5-carboxamide]?
A: Selectivity hEP2/hDP (human PGD receptor): xxx (xxx > 100); pIC50 [1]: 7.35; Selectivity hEP2/hEP4 [2]: xxx (xxx > 100)

Q: For `COCCNC(=O)c1ccc2nn(CC3CCN(C(=O)c4nc(-c5ccccc5)no4)CC3)cc2c1C` [Example 352, N-(2-methoxyethyl)-4-methyl-2-({1-[(3-phenyl-1,2,4-oxadiazol-5-yl)carbonyl]-piperidin-4-yl}methyl)-2H-indazol-5-carboxamide], which “Selectivity hEP2/hDP” value (human PGD receptor) is on record?
A: xxx (xxx > 100)

Q: What about the pIC50 [1] of the same compound?
A: 7.66

Q: And the “Selectivity hEP2/hEP4” value [2]?
A: xxx (xxx > 100)

Q: How did the “Selectivity hEP2/hDP” value (human PGD receptor) turn out when `COc1c(C(=O)NCCN2CCOCC2)ccc2nn(CC3CCN(C(=O)c4ccc(Cl)cc4)CC3)cc12` [Example 261, 2-{[1-(4-chlorobenzoyl)piperidin-4-yl]methyl}-4-methoxy-N-(2-morpholinoethyl)-2H-indazol-5-carboxamide] was run?
A: xxx (xxx > 100)

Q: What about the pIC50 [1] of the same compound?
A: 7.09

Q: What about the “Selectivity hEP2/hEP4” value [2] of the same compound?
A: xxx (xxx > 100)

Q: Which “Selectivity hEP2/hDP” value (human PGD receptor) does the source give for `Cc1c(C(=O)NCC(F)(F)F)ccc2nn(CC3CCN(C(=O)c4ccc(-c5cnc(C(F)(F)F)nc5)cc4)CC3)cc12` [Example 328, 4-methyl-N-(2,2,2-trifluoroethyl)-2-[(1-{4-[2-(trifluoromethyl)pyrimidin-5-yl]-benzoyl}piperidin-4-yl)methyl]-2H-indazol-5-carboxamide] here?
A: xx (xx: 10-100)

Q: And the pIC50 [1]?
A: 6.59

Q: And the “Selectivity hEP2/hEP4” value [2]?
A: xx (xx: 10-100)

Q: `COCCNC(=O)c1ccc2nn(CC3CCN(C(=O)c4ccc(OC(F)F)cc4F)CC3)cc2c1C` [Example 40, 2-({1-[4-(difluoro-methoxy)-2-fluoro-benzoyl]piperidin-4-yl}methyl)-N-(2-methoxyethyl)-4-methyl-2H-indazol-5-carboxamide] was tested. Which “Selectivity hEP2/hDP” value (human PGD receptor) did it give?
A: xxx (xxx > 100)

Q: What about the pIC50 [1] of the same compound?
A: 7.94

Q: What about the “Selectivity hEP2/hEP4” value [2] of the same compound?
A: xxx (xxx > 100)

Q: For `COC(C)CNC(=O)c1ccc2nn(CC3CN(C(=O)c4ccc(Cl)cc4)C3)cc2c1C` (single isomer, unassigned) [Example 139, (R or S)-2-{[1-(4-chlorobenzoyl)azetidin-3-yl]methyl}-N-(2-methoxypropyl)-4-methyl-2H-indazol-5-carboxamide], which “Selectivity hEP2/hDP” value (human PGD receptor) is on record?
A: xx (xx: 10-100)

Q: What about the pIC50 [1] of the same compound?
A: 6.38

Q: And the “Selectivity hEP2/hEP4” value [2]?
A: xx (xx: 10-100)

Q: With `Cc1c(C(=O)NCC(F)(F)F)ccc2nn(CC3CCN(C(=O)c4ccc(-c5ccc(C(F)(F)F)cn5)cc4)CC3)cc12` [Example 312, 4-methyl-N-(2,2,2-trifluoroethyl)-2-[(1-{4-[5-(trifluoromethyl)pyridin-2-yl]-benzoyl}piperidin-4-yl)methyl]-2H-indazol-5-carboxamide] as the compound, how does the “Selectivity hEP2/hDP” value (human PGD receptor) read?
A: xxx (xxx > 100)

Q: And the pIC50 [1]?
A: 6.80

Q: What about the “Selectivity hEP2/hEP4” value [2] of the same compound?
A: xxx (xxx > 100)

Q: How did the “Selectivity hEP2/hDP” value (human PGD receptor) turn out when `COCCNC(=O)c1ccc2nn(CC3CCN(C(=O)c4ccc(-c5ccc(Cl)cc5OC)cc4)CC3)cc2c1C` [Example 381, 2-({1-[(4′-chloro-2′-methoxybiphenyl-4-yl)carbonyl]piperidin-4-yl}methyl)-N-(2-methoxyethyl)-4-methyl-2H-indazol-5-carboxamide] was run?
A: xxx (xxx > 100)

Q: What about the pIC50 [1] of the same compound?
A: 8.23

Q: What about the “Selectivity hEP2/hEP4” value [2] of the same compound?
A: xxx (xxx > 100)

Q: What does the source list for `COCCNC(=O)c1ccc2nn(CC3CN(C(=O)c4cc5cc(Cl)ccc5n4C)C3)cc2c1C` [Example 171, 2-({1-[(5-chloro-1-methyl-1H-indol-2-yl)carbonyl]azetidin-3-yl}methyl)-N-(2-methoxyethyl)-4-methyl-2H-indazol-5-carboxamide]?
A: Selectivity hEP2/hDP (human PGD receptor): xxx (xxx > 100); pIC50 [1]: 8.41; Selectivity hEP2/hEP4 [2]: xxx (xxx > 100)

Q: Which “Selectivity hEP2/hDP” value (human PGD receptor) does the source give for `COCCNC(=O)c1ccc2nn(CC3CCN(C(=O)c4ccc(-c5ccc(C)nc5)cc4)CC3)cc2c1C` [Example 377, N-(2-methoxyethyl)-4-methyl-2-({1-[4-(6-methylpyridin-3-yl)benzoyl]piperidin-4-yl}methyl)-2H-indazol-5-carboxamide] here?
A: xxx (xxx > 100)

Q: What about the pIC50 [1] of the same compound?
A: 7.56

Q: And the “Selectivity hEP2/hEP4” value [2]?
A: xxx (xxx > 100)

Q: Which “Selectivity hEP2/hDP” value (human PGD receptor) does the source give for `Cc1c(C(=O)NCC(F)(F)F)ccc2nn(CC3CN(C(=O)c4ccc(Oc5ccc(C(F)(F)F)cn5)cc4)C3)cc12` [Example 177, 4-methyl-N-(2,2,2-trifluoroethyl)-2-{[1-(4-{[5-(trifluoromethyl)pyridin-2-yl]oxy}benzoyl)azetidin-3-yl]methyl}-2H-indazol-5-carboxamide] here?
A: xxx (xxx > 100)

Q: And the pIC50 [1]?
A: 6.93

Q: And the “Selectivity hEP2/hEP4” value [2]?
A: xxx (xxx > 100)
